#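 GI50 = concentration required for 50% inhibition of growth. TGI: total growth inhibition.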
# Experiments:
# Assay in all cases: inhibition of tumour cell growth, NCI panel, 384-well format
# [1] = test system: SN12C renal
# [2] = test system: NCI-H23 lung
# [3] = test system: HL-60(TB) leukemia
# [4] = test system: SR leukemia
# [5] = test system: U251 glioblastoma
# [6] = test system: HCC-2998 colon
# [7] = test system: BT-549 breast
# [8] = test system: IGROV1 ovarian
# [9] = test system: RPMI-8226 leukemia
# [10] = test system: MCF7 breast
# [11] = test system: M14 melanoma
# [12] = test system: CCRF-CEM leukemia
# [13] = test system: NCI-H522 lung
# [14] = test system: K-562 leukemia
# [15] = test system: SF-539 CNS
# [16] = test system: UACC-257 melanoma
# [17] = test system: SK-OV-3 ovarian
# [18] = test system: MOLT-4 leukemia
# [19] = test system: NCI-H226 lung
# [20] = test system: HT29 colon
# [21] = test system: 786-0 renal
# [22] = test system: SF-295 CNS
# [23] = test system: SK-MEL-5 melanoma
# [24] = test system: UO-31 renal
# [25] = test system: ACHN renal
# [26] = test system: MDA-MB-435 melanoma
# [27] = test system: CAKI-1 renal
# [28] = test system: A549 NSCLC
# [29] = test system: RXF 393 renal
# [30] = test system: DU-145 prostate
# [31] = test system: LOX IMVI melanoma
# [32] = test system: SK-MEL-2 melanoma
# [33] = test system: OVCAR-4 ovarian
# [34] = test system: TK-10 renal
# [35] = test system: KM12 colon
# [36] = test system: OVCAR-3 ovarian
# [37] = test system: UACC-62 melanoma
# [38] = test system: MDA-MB-231 breast
# [39] = test system: PC-3 prostate
# [40] = test system: OVCAR-8 ovarian
# [41] = test system: SK-MEL-28 melanoma
# [42] = test system: NCI/ADR-RES ovarian
# [43] = test system: A498 renal
# [44] = test system: HOP-62 NSCLC
# [45] = test system: SW-620 colon
# [46] = test system: HOP-92 NSCLC
# [47] = test system: SF-268 CNS
# [48] = test system: SNB-19 CNS
# [49] = test system: NCI-H322M lung
# [50] = test system: NCI-H460 NSCLC
# [51] = test system: MDA-MB-468 breast
# [52] = test system: OVCAR-5 ovarian
# [53] = test system: MALME-3M melanoma
# [54] = test system: HCT-15 colon
# [55] = test system: T-47D breast
# [56] = test system: COLO 205 colon
# [57] = test system: HCT-116 colon
# [58] = test system: EKVX NSCLC
# [59] = test system: SNB-75 CNS
# [60] = test system: HS 578T breast
smiles,measurement,setting,value
CNC[C@@H](NC(=O)c1ccc(-c2nc([C@H]3CC[C@H](O)[C@@H](F)C3)cnc2N)cc1F)c1cc(F)cc(Br)c1,GI50,[1],18.5 µM
same,TGI,[1],32.5 µM
same,GI50,[2],19.4 µM
same,TGI,[2],36.9 µM
same,GI50,[3],13.9 µM
same,TGI,[3],26.9 µM
same,GI50,[4],12.1 µM
same,TGI,[4],24.5 µM
same,GI50,[5],17.5 µM
same,TGI,[5],31.4 µM
same,GI50,[6],17.2 µM
same,TGI,[6],31 µM
same,GI50,[7],13.7 µM
same,TGI,[7],26.6 µM
same,GI50,[8],17.9 µM
same,TGI,[8],34.5 µM
same,GI50,[9],12.4 µM
same,TGI,[9],24.9 µM
same,GI50,[10],18 µM
same,TGI,[10],31.9 µM
same,GI50,[11],18.2 µM
same,TGI,[11],32.2 µM
same,GI50,[12],16.8 µM
same,TGI,[12],30.5 µM
same,GI50,[13],18.2 µM
same,TGI,[13],32.1 µM
same,GI50,[14],16.8 µM
same,TGI,[14],30.5 µM
same,GI50,[15],17.2 µM
same,TGI,[15],31 µM
same,GI50,[16],14.6 µM
same,TGI,[16],27.8 µM
same,GI50,[17],16.9 µM
same,TGI,[17],30.7 µM
same,GI50,[18],17.7 µM
same,TGI,[18],31.6 µM
same,GI50,[19],18.6 µM
same,TGI,[19],33 µM
same,GI50,[20],16.1 µM
same,TGI,[20],29.9 µM
same,GI50,[21],15 µM
same,TGI,[21],28.3 µM
same,GI50,[22],18.5 µM
same,TGI,[22],32.6 µM
same,GI50,[23],20.8 µM
same,TGI,[23],35.2 µM
same,GI50,[24],1.39 µM
same,TGI,[24],2.87 µM
same,GI50,[25],16.9 µM
same,TGI,[25],30.6 µM
same,GI50,[26],20.3 µM
same,TGI,[26],34.7 µM
same,GI50,[27],16.9 µM
same,TGI,[27],30.9 µM
same,GI50,[28],17 µM
same,TGI,[28],31.1 µM
same,GI50,[29],15.3 µM
same,TGI,[29],28.7 µM
same,GI50,[30],18.5 µM
same,TGI,[30],32.8 µM
same,GI50,[31],23.1 µM
same,TGI,[31],37.7 µM
same,GI50,[32],20.5 µM
same,TGI,[32],34.8 µM
same,GI50,[33],19.9 µM
same,TGI,[33],36.1 µM
same,GI50,[34],17 µM
same,TGI,[34],31.4 µM
same,GI50,[35],17.5 µM
same,TGI,[35],31.5 µM
same,GI50,[36],18 µM
same,TGI,[36],32 µM
same,GI50,[37],16.7 µM
same,TGI,[37],30.5 µM
same,GI50,[38],20.1 µM
same,TGI,[38],34.4 µM
same,GI50,[39],17.6 µM
same,TGI,[39],31.5 µM
same,GI50,[40],18.9 µM
same,TGI,[40],33.1 µM
same,GI50,[41],18.8 µM
same,TGI,[41],33 µM
same,GI50,[42],48.5 µM
same,TGI,[42],> 100 µM
same,GI50,[43],16.6 µM
same,TGI,[43],30.3 µM
same,GI50,[44],17.8 µM
same,TGI,[44],31.7 µM
same,GI50,[45],20.6 µM
same,TGI,[45],35.1 µM
same,GI50,[46],16.8 µM
same,TGI,[46],30.6 µM
same,GI50,[47],17.2 µM
same,TGI,[47],31.1 µM
same,GI50,[48],19.1 µM
same,TGI,[48],33.3 µM
same,GI50,[49],18.7 µM
same,TGI,[49],33.4 µM
same,GI50,[50],18.8 µM
same,TGI,[50],33.2 µM
same,GI50,[51],18.3 µM
same,TGI,[51],32.2 µM
same,GI50,[52],17.5 µM
same,TGI,[52],33.5 µM
same,GI50,[53],17.1 µM
same,TGI,[53],30.9 µM
same,GI50,[54],19.4 µM
same,TGI,[54],33.7 µM
same,GI50,[55],22.5 µM
same,TGI,[55],37.2 µM
same,GI50,[56],16.4 µM
same,TGI,[56],30.1 µM
same,GI50,[57],16.8 µM
same,TGI,[57],30.6 µM
Cc1cc(-c2ccc(C3C(C#N)=C(N)Oc4c3c(=O)oc3ccccc43)cc2)cnc1F (stereo not drawn),GI50,[1],47.7 µM
same,TGI,[1],> 100 µM
same,GI50,[2],29.6 µM
same,TGI,[2],> 100 µM
same,GI50,[3],24.7 µM
same,TGI,[3],44.9 µM
same,GI50,[4],17.1 µM
same,TGI,[4],32.2 µM
same,GI50,[6],29.7 µM
same,TGI,[6],80.3 µM
same,GI50,[7],27.9 µM
same,TGI,[7],> 100 µM
same,GI50,[8],42.5 µM
same,TGI,[8],> 100 µM
same,GI50,[9],14 µM
same,TGI,[9],33.5 µM
same,GI50,[10],38 µM
same,TGI,[10],> 100 µM
same,GI50,[58],43.7 µM
same,TGI,[58],> 100 µM
same,GI50,[11],90.2 µM
same,TGI,[11],> 100 µM
same,GI50,[12],17.5 µM
same,TGI,[12],33.7 µM
same,GI50,[13],17.5 µM
same,TGI,[13],35.4 µM
same,GI50,[14],33.9 µM
same,TGI,[14],> 100 µM
same,GI50,[15],24.8 µM
same,TGI,[15],55.6 µM
same,GI50,[16],58.1 µM
same,TGI,[16],> 100 µM
same,GI50,[17],45.9 µM
same,TGI,[17],> 100 µM
same,GI50,[18],15 µM
same,TGI,[18],28.4 µM
same,GI50,[19],18.4 µM
same,TGI,[19],59.3 µM
same,GI50,[20],25.1 µM
same,TGI,[20],65 µM
same,GI50,[21],43.2 µM
same,TGI,[21],> 100 µM
same,GI50,[22],46.9 µM
same,TGI,[22],> 100 µM
same,GI50,[23],29.8 µM
same,TGI,[23],78.1 µM
same,GI50,[24],30.1 µM
same,TGI,[24],> 100 µM
same,GI50,[25],42.6 µM
same,TGI,[25],> 100 µM
same,GI50,[26],89 µM
same,TGI,[26],> 100 µM
same,GI50,[27],43.6 µM
same,TGI,[27],> 100 µM
same,GI50,[28],54.5 µM
same,TGI,[28],> 100 µM
same,GI50,[29],17.4 µM
same,TGI,[29],32.2 µM
same,GI50,[30],39.3 µM
same,TGI,[30],> 100 µM
same,GI50,[31],21.9 µM
same,TGI,[31],45.4 µM
same,GI50,[33],33.9 µM
same,TGI,[33],> 100 µM
same,GI50,[34],30.3 µM
same,TGI,[34],82.1 µM
same,GI50,[35],> 100 µM
same,TGI,[35],> 100 µM
same,GI50,[36],26.7 µM
same,TGI,[36],57.1 µM
same,GI50,[37],40.1 µM
same,TGI,[37],> 100 µM
same,GI50,[38],39.7 µM
same,TGI,[38],> 100 µM
same,GI50,[39],53.1 µM
same,TGI,[39],> 100 µM
same,GI50,[40],38.5 µM
same,TGI,[40],> 100 µM
same,GI50,[41],> 100 µM
same,TGI,[41],> 100 µM
same,GI50,[42],40 µM
same,TGI,[42],> 100 µM
same,GI50,[43],31.3 µM
same,TGI,[43],> 100 µM
same,GI50,[59],40.9 µM
same,TGI,[59],> 100 µM
same,GI50,[44],34.7 µM
same,TGI,[44],> 100 µM
same,GI50,[45],58.3 µM
same,TGI,[45],> 100 µM
same,GI50,[46],13.9 µM
same,TGI,[46],39.7 µM
same,GI50,[47],50.1 µM
same,TGI,[47],> 100 µM
same,GI50,[48],62.9 µM
same,TGI,[48],> 100 µM
same,GI50,[49],25.4 µM
same,TGI,[49],67 µM
same,GI50,[50],37.1 µM
same,TGI,[50],> 100 µM
same,GI50,[51],24 µM
same,TGI,[51],49.2 µM
same,GI50,[60],29.1 µM
same,TGI,[60],79.9 µM
same,GI50,[52],37.4 µM
same,TGI,[52],> 100 µM
same,GI50,[53],47.7 µM
same,TGI,[53],> 100 µM
same,GI50,[54],18.9 µM
same,TGI,[54],39.3 µM
same,GI50,[55],46.4 µM
same,TGI,[55],> 100 µM
same,GI50,[56],64.6 µM
same,TGI,[56],> 100 µM

# Reference: PubChem BioAssay (NCI)
